# From patent US20010025038A1, “Method of reducing craving in mammals” (priority 1997, published 2001)
# Assays:
# [1] = in vivo; cited from earlier work
# male CF-1 mice = test: cocaine induced locomotor stimulation in mice (Example 1); assay type: in vivo; settings: for cocaine induced increase in locomotor activity: oral dose 20 minutes before cocaine sc; for locomotor activity, drug administered alone: oral dose, 8 minute period
# Procedure: Cocaine-produced increases in locomotor activity were blocked by D1/D5 antagonists, but not by D2/D3 antagonists unless relatively high doses were used. In this example, a selective D1/D5 antagonist, SCH 39166, and a selective D2/D3 antagonist, raclopride, were studied on cocaine induced locomotor stimulation in male CF-1 mice. The mice were given an oral dose of SCH 39166, raclopride or vehicle, followed 20 minutes later by a dose of cocaine or vehicle administered subcutaneously (sc).
# [2] = in vivo; cited from earlier work; remark: listed apart in the source
# healthy volunteers = test: crossover d-amphetamine study in healthy volunteers; assay type: in vivo; settings: 100 mg pretreatment, 15 mg d-amphetamine, vs placebo
# Procedure: Similarly, in a second crossover study in healthy volunteers administered 15 mg d-amphetamine following pretreatment with 100 mg SCH 39166 or placebo, attenuation of amphetamine euphoric (FIG. 12) and dysphoric (FIG. 13) effects were also observed for SCH 39166 in comparison with the placebo.
# [3] = test system: adult male Sprague-Dawley (SD) rats; test: NPY-stimulated food intake in rats (Example 5); assay type: in vivo; settings: 3 mpk ip 30 minutes before i.c.v. NPY
# Procedure: In this experiment, a baseline food intake (in grams) was measured at time intervals of 2, 4, or 24 hours following interocerebral ventricular (i.c.v.) administration of neuropeptide “Y” (NPY), a compound that stimulates an animal to consume food. A 3 μg/5 μl volume of NPY was administered to adult male Sprague-Dawley (SD) rats. On test day, three groups of rats (five rats per group) were pretreated with SCH39166 according to the following dosing schedule:
# A dose of SCH39166 was injected intraperitoneally (ip). Thirty minutes later, a […] i.c.v. injection of NPY was administered. The control animals received an ip injection of the vehicle methylcellulose. Thirty minutes later, animals received NPY ([…]). A second group received 1 mpk of SCH39166 ip, and thirty minutes later received […] of NPY. A third group of animals received 3 mpk of SCH39166 ip and thirty minutes later received […] of NPY. Food intake was measured 2 hours, 4 hours, and 24 hours following NPY administration.
# ob/ob mice = test: food intake in genetically obese ob/ob mice (Example 4); assay type: in vivo; settings: 3.0 mg/kg ip, p<0.02
# Procedure: Twenty four male mice of a genetically obese strain, i.e. ob/ob mice, aged 16 weeks were individually housed in Nalgene metabolism cages in a reverse light cycle room for the entire duration of the study. Mice were allowed food and water ad libitum. The mice were divided into 5 groups of 4-5 mice each based on baseline food intake and body weight. Mice were dosed intraperitoneally (ip) with vehicle, 0.003, 0.03, 0.3, or 3.0 mg/kg SCH 39166 at the onset of the dark cycle and a known mass of standard rodent chow was provided. Food consumption was measured after five hours, and another ip injection of vehicle or drug was given. Food intake was measured again at 24 hours after the initial injection. These injections and measurements were continued for 72 hours. Seventy two hour cumulative food intake was decreased 17% at 3.0 mg/kg (p<0.02).
# [4] = test system: cocaine-dependent patients; test: multi-center double blind study in cocaine-dependent patients, interim analysis (Example 6); assay type: in vivo; settings: for Patients with Weight Loss ≧5 lb. / Weight Change: patients completing ≧28 days of treatment
# Procedure: In a multi-center double blind study an interim analysis had been conducted on approximately 160 cocaine-dependent patients who had been given daily doses of 10 mg, 25 or 100 mg of SCH39166 or of a placebo over a test period of eight weeks.
# The Body Mass Index (BMI) and the patient weight were measured at the beginning and end of the study. The BMI is determined by the weight (kg)/height^2 (meters). Patients having BMI's of 20.0-24.9 are considered to be of normal weight, while patients having BMI's over 25.0 are considered to be overweight.
# Table 1B indicates the percentage of patients with an initial BMI of 22 or less and the percentage of patients with a BMI of at least 26 who lost at least one unit of BMI.
# monkeys = monkeys administered SCH 39166; cited from earlier work
# rodent = rodent model of food craving and relapse after food restriction; assay type: in vivo
# Source text: (§1) While not wishing to be bound by any theory, D1/D5 antagonists and/or D1/D5 partial agonists may prevent dietary relapse in the treatment of obesity by blocking the rewarding effects of dopamine at the D1/D5 sites associated with cravings.
# [5] = test system: adult male rats (strain: CD); test: bar press for food on fixed-ratio schedule FR30 (Example 3); assay type: in vivo
# Procedure: In this example, adult male rats (strain: CD) were trained to bar press for food on a fixed-ratio schedule of 30 (FR30). A rat had to press a bar 30 times in order to receive one 45 mg pellet of food. Each training session was 30 minutes long. The total response rate (total # of bar presses/30 minutes), i.e., the rate at which rats pressed the bar, was measured and then analyzed in animals that were initially given saline (control animals) and then doses of the D1/D5 antagonists SCH23390 or SCH39166. Each group of six animals received one dose of drug given subcutaneously in a volume of 1 ml/kg 30 minutes before the start of the session.
# [6] = test system: people who previously had exhibited a cocaine addiction; assay type: in vivo, humans
# Procedure: In a double-blind study, the subjects were administered placebo 10 mg of SCH39166, 25 mg of SCH 39166, or 100 mg of SCH 39166 two hours prior to an injection of […] of cocaine. Systolic and diastolic blood pressure in the individuals was measured from 2 hours prior to cocaine injection until approximately 4 hours after cocaine administration.
# In the same study, the desire to take cocaine was measured as a function of time after administration of placebo or varying doses of SCH 39166. The desire to take cocaine was measured by the Visual Analog Scale test. This test procedure is described in the British Journal of Medical Psychology, Volume 47. pp 211-218 (1974). In this test the individuals are asked to subjectively rate their feelings to take cocaine on a scale of zero-100, with zero representing no desire at all and 100 representing the strongest feelings. As may be seen in FIG. 7, the euphoric “high” following cocaine administration was lower in patients who had been pre-treated with SCH 39166, particularly a dose of 100 mg.
# Even if the compounds of this invention were effective in reducing craving to abused substances or food, individuals would be unlikely to take the craving-reducing drugs unless they had tolerable side effects. […] Therefore, usage of this compound should not be adversely affected by negative opinions of the individuals to whom the drug is administered nor should it cause stimulation following administration.
# [7] = test system: cocaine-dependent patients; test: multi-center double blind study in cocaine-dependent patients, interim analysis (Example 6); assay type: in vivo
# primate = primate model of food craving and relapse after food restriction; assay type: in vivo
# Source text: as §1
# [8] = up to 3 mg/k; cited from earlier work
# [9] = cocaine relapse model; cited from earlier work
# [10] = daily doses of 10, 25 or 100 mg over eight weeks
smiles,measurement,setting,value
O=C(CCCN1CCC(O)(c2ccc(Cl)cc2)CC1)c1ccc(F)cc1 [haloperidol],adverse side effects,[1],"significant adverse side effects, such as dysphoria, restlessness or stiffness"
"CCN1CCC[C@H]1CNC(=O)c1c(O)c(Cl)cc(Cl)c1OC [raclopride, reference compound]",cocaine induced increase in locomotor activity,male CF-1 mice,only affected the cocaine induced increase in locomotor activity at relatively high doses
same,"locomotor activity, drug administered alone",male CF-1 mice,dose dependent decrease in locomotor activity
same,block of the response-reinstating effects of food reinforcement,[2],sufficient to block the response-reinstating effects of food reinforcement
"CN1CCc2cc(Cl)c(O)cc2[C@H]2c3ccccc3CC[C@@H]21 [SCH 39166, (−)- trans-6,7,7a,8,9,13b-hexahydro-3-chloro-2-hydroxy-N-methyl-5H-benzo [d]-naphtho-[2,1-b]azepine]",cocaine induced increase in locomotor activity,male CF-1 mice,blocked the cocaine induced increase in locomotor activity at all doses of cocaine tested
same,"locomotor activity, drug administered alone",male CF-1 mice,dose dependent decrease in locomotor activity
same,amphetamine dysphoric effects,healthy volunteers,attenuation
same,amphetamine euphoric effects,healthy volunteers,attenuation
same,food intake 2 hours after NPY administration,[3],significant decrease in food intake
same,seventy two hour cumulative food intake decrease,ob/ob mice,17%
same,"Patients with Weight Loss ≧1 BMI UNIT, Init. BMI ≦22",[4]; 10 mg daily,2/9 (22%)
same,"Patients with Weight Loss ≧1 BMI UNIT, Init. BMI ≧26",[4]; 10 mg daily,2/10 (20%)
same,Patients with Weight Loss ≧5 lb.,[4]; 10 mg daily,27%
same,Weight Change,[4]; 10 mg daily,−1.4 pounds
same,% of Patients Abstaining from Alcohol for at Least 1 day,[4]; 10 mg dose,43%
same,% of Patients Abstaining from Alcohol for at Least 3 days,[4]; 10 mg dose,23%
same,% of Patients At Least 3 Days Since Last Cigarette,[4]; 10 mg dose,27%
same,"Patients with Weight Loss ≧1 BMI UNIT, Init. BMI ≦22",[4]; 25 mg daily,2/10 (20%)
same,"Patients with Weight Loss ≧1 BMI UNIT, Init. BMI ≧26",[4]; 25 mg daily,4/13 (30%)
same,Patients with Weight Loss ≧5 lb.,[4]; 25 mg daily,22%
same,Weight Change,[4]; 25 mg daily,−0.9 pounds
same,% of Patients Abstaining from Alcohol for at Least 3 days,[4]; 25 mg dose,31%
same,% of Patients At Least 3 Days Since Last Cigarette,[4]; 25 mg dose,19%
same,% of Patients At Least One Day Since Last Cigarette,[4]; 25 mg dose,53%
same,"Patients with Weight Loss ≧1 BMI UNIT, Init. BMI ≦22",[4]; 100 mg daily,1/6 (17%)
same,"Patients with Weight Loss ≧1 BMI UNIT, Init. BMI ≧26",[4]; 100 mg daily,10/14 (71%)
same,Patients with Weight Loss ≧5 lb.,[4]; 100 mg daily,45%
same,Weight Change,[4]; 100 mg daily,−3.3 pounds
same,% of Patients Abstaining from Alcohol for at Least 1 day,[4]; 100 mg dose,59%
same,% of Patients Abstaining from Alcohol for at Least 3 days,[4]; 100 mg dose,48%
same,% of Patients At Least 3 Days Since Last Cigarette,[4]; 100 mg dose,17%
same,% of Patients At Least One Day Since Last Cigarette,[4]; 100 mg dose,38%
same,reducing weight in the obese population,"[4]; BMI of 26 or greater, particularly at 100 mg/day",especially effective in reducing weight
same,reducing alcohol consumption,[4]; [10],effective
same,reducing cigarette smoking,[4]; [10],effective
same,reducing cocaine usage,[4]; [10],did not show efficacy
same,reducing weight,[4]; [10],effective
same,reducing cigarette smoking,[4]; low doses,efficacious in reducing cigarette smoking
same,increase in the dose of cocaine required to restore characteristic self-administration performances,monkeys,≥ 3 fold
same,relapse associated with the effects of food and environmental cues associated with food,rodent,can block the relapse
same,bar press rate relative to saline-treated control animals,"[5]; 0.01 mpk subcutaneously 30 minutes before session, FR30",significantly reduced the bar press rate
same,response rate across doses,"[5]; SCH 23390 0.003-0.03 mpk, SCH 39166 0.001-0.3 mpk, subcutaneously",dose-related decrease in response rate until responses were eliminated at the highest dose
same,reduction in cocaine desire,"[6]; Visual Analog Scale, 100 mg",greatest reduction in cocaine desire
same,desire to take cocaine,"[6]; Visual Analog Scale, compared with placebo",significantly lower
same,"dysphoric effects, such as anxiety, after cocaine administration","[6]; Visual Analog Scale, pre-treated patients",lower
same,"euphoric ""high"" following cocaine administration","[6]; Visual Analog Scale, pre-treated patients, particularly a dose of 100 mg",lower
same,"""bad drug effects""",[6]; in vivo,not significantly different from the placebo
same,systolic and diastolic blood pressure elevations caused by cocaine,"[6]; in vivo, 30 mg/kg",did not adversely affect
same,% of Patients At Least One Day Since Last Cigarette,[7]; 10 mg dose,57%
same,% of Patients Abstaining from Alcohol for at Least 1 day,[7]; 25 mg dose,41%
same,relapse associated with the effects of food and environmental cues associated with food,primate,can block the relapse
same,"effect on total food intake, meal size or feeding rate",[8],no effect
same,attenuation of cocaine-seeking behavior,[9],able to attenuate the cocaine-seeking behavior
